Experimental data from patent US20050096564A1, “Method of distributing skin care products” (priority 2001, published 2005).

Columns and labels:
[1] = in vivo
Excerpt: The studies included non-smoking, female subjects of good health over the age of 35 years and under the age 55 years with skin type of III or less by the Fitzpatrick Skin classification. […] Acceptable subjects were chronologically enrolled in the study following a randomization code describing what treatment would be applied to which dorsal forearm. […] The subject applied a blinded emulsion designated by a letter to one dorsal forearm and an alternative emulsion with a different designation to the opposite arm, twice per day, for three weeks. […] ISF was extracted from the dorsal forearm, volar upper arm, and serum at one week (“Week 2”) and three weeks after dosing (“Week 4”) and two weeks after the cessation of dosing (“Week 6”).
ISF was extracted from both the treatment site (dorsal forearm) as well as an adjacent, untreated site volar upper arm) following one week of therapy and three weeks of therapy. Subjects ended treatment at this point and returned for a final extraction two weeks later.
The ISF collection period lasted between three and six hours, typically four hours.

[2] = Study 2: vitamin C concentration in ISF and serum of subjects taking oral vitamin supplements; type: in vivo, human; conditions: Study 2, Supplement Yes
Excerpt: The laser made four pores at each collection site.

Influence of topical application on levels at an adjacent, untreated site or the serum [1]: does not influence
Response of serum level to topical therapy [1]: did not respond
Vitamin C concentration, MEAN ([2]; Serum): 1.36
Vitamin C concentration, MEAN ([2]; Sun-exposed site ISF): 1.00
Vitamin C concentration, MEAN ([2]; Sun-protected site ISF): 1.00
SMILES: O=C1O[C@H]([C@@H](O)CO)C(O)=C1O [Vitamin C, vitamin C]
